Key:
AidB [1] = target: T1, AidB (Escherichia coli, UniProt P33224); experiment: UV-visible spectroscopy and redox potentiometry of bound flavin; type: binding; conditions: bound FAD of the purified protein; pH 8.0, 300 mM NaCl, anaerobic
T1 construct: predominantly tetramer in solution
T1 sequence (P33224 1-541): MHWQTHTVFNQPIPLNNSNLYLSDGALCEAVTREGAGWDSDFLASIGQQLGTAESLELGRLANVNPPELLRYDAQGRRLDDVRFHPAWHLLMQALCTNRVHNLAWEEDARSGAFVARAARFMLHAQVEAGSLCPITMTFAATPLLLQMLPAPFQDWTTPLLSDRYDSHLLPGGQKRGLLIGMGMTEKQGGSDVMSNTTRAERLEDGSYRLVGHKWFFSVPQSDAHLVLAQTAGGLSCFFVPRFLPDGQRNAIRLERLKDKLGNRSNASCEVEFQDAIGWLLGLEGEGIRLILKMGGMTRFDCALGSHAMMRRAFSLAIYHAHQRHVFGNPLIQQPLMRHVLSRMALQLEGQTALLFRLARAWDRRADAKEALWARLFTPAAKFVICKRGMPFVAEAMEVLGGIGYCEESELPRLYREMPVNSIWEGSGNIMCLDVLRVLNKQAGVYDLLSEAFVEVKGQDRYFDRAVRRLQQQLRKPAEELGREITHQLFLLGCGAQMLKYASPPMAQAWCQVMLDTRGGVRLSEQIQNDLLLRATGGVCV

AidB [2] = target: T1, AidB; experiment: shift of flavin midpoint reduction potential (xanthine/xanthine oxidase redox potentiometry), two-state binding fit; conditions: read-out: Kd^app

Structure (SMILES) | UV-visible spectroscopy and redox potentiometry of bound flavin (AidB [1]) | Kd (AidB [2])
Cc1cc2nc3c(=O)[nH]c(=O)nc-3n(C[C@H](O)[C@H](O)[C@H](O)COP(=O)(O)OP(=O)(O)OC[C@H]3O[C@@H](n4cnc5c(N)ncnc54)[C@H](O)[C@@H]3O)c2cc1C [FAD] | Reduction potentials of the AidB FAD cofactor were measured using the xanthine/xanthine oxidase system | 
CC(C)CC(=O)SCCNC(=O)CCNC(=O)[C@H](O)C(C)(C)COP(=O)(O)OP(=O)(O)OC[C@H]1O[C@@H](n2cnc3c(N)ncnc32)[C@H](O)[C@@H]1OP(=O)(O)O [IVCoA] |  | 87 ± 27 µM
